Assays:
Type in all cases: in vivo
[1] = tested on: Cabbage Looper (Trichoplusia ni, TRIPNI); experiment: Bioassays on Cabbage Looper (CL), 128-well diet tray assay; conditions: Trichoplusia ni; Cabbage Looper, Table ABC / ABC-DP rating; read-out: CL rating
Summary of the method: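 Activity is mean percent mortality over eight wells of second-instar larvae exposed to diet treated at 50 μg/cm^2 for 5–7 days at 25° C.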

[2] = tested on: Beet Armyworm (Spodoptera exigua, LAPHEG); experiment: Bioassays on Beet Armyworm (BAW), 128-well diet tray assay; conditions: Spodoptera exigua; Beet Armyworm, Table ABC / ABC-DP rating; read-out: BAW rating
Summary of the method: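 Mortality of second-instar larvae (1–5/well) on artificial diet treated with 50 μg/cm^2 compound, read after 5–7 days at 25° C.; values are means of eight wells.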

[3] = tested on: Yellow Fever Mosquito (Aedes aegypti, AEDSAE); conditions: Yellow Fever Mosquito, Table ABC / ABC-DP rating
Summary of the method: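 Compounds from DMSO master plates (4000 ppm stock) diluted in 90:10 water/acetone, then dispensed into six replicate plates and infested with ~1-day-old Aedes aegypti larvae in liver-powder water. Held covered at room temperature for 3 days; each well scored for larval mortality and graded on a rating scale.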

Compound | pest or weed control at 50 µg/cm2 [1] | pest or weed control at 50 µg/cm2 [2] | YFM rating [3]
O=C(Nc1ccc(F)c(NC(=O)C(F)(F)F)c1)c1cc(NC(=O)[C@H]2[C@H](c3ccc(F)c(Cl)c3)C2(Cl)Cl)ccc1Cl [F1814, 2-Chloro-5-((1R,3R)-2,2-dichloro-3-(3-chloro-4-fluorophenyl)cyclopropane-1-carboxamido)-N-(4-fluoro-3-(2,2,2-trifluoroacetamido)phenyl)benzamide] | 50 to 100% | 50 to 100% | A (80–100)
O=C(Nc1ccc(F)c(NC(=O)C(F)(F)F)c1)c1cc(NC(=O)[C@H]2[C@H](c3ccc(F)c(C(F)(F)F)c3)C2(Cl)Cl)ccc1Cl [F1815, 2-Chloro-5-((1R,3R)-2,2-dichloro-3-(4-fluoro-3-(trifluoromethyl)phenyl)cyclopropane-1-carboxamido)-N-(4-fluoro-3-(2,2,2-trifluoroacetamido)phenyl)benzamide] | 50 to 100% | 50 to 100% | A (80–100)
O=C(Nc1c(F)ccc(NC(=O)c2cc(NC(=O)[C@H]3[C@H](c4ccc(F)c(C(F)(F)F)c4)C3(Cl)Cl)ccc2Cl)c1F)c1ccon1 [F1818, N-(3-(2-Chloro-5-((1R,3R)-2,2-dichloro-3-(4-fluoro-3-(trifluoromethyl)phenyl)cyclopropane-1-carboxamido)benzamido)-2,6-difluorophenyl)isoxazole-3-carboxamide] | 50 to 100% | 50 to 100% | A (80–100)
O=C(Nc1c(F)ccc(NC(=O)c2cc(NC(=O)[C@H]3[C@H](c4ccc(F)c(C(F)(F)F)c4)C3(Cl)Cl)ccc2Cl)c1F)c1ccn(CC(F)(F)F)n1 [F1819, N-(3-(2-Chloro-5-((1R,3R)-2,2-dichloro-3-(4-fluoro-3-(trifluoromethyl)phenyl)cyclopropane-1-carboxamido)benzamido)-2,6-difluorophenyl)-1-(2,2,2-trifluoroethyl)-1H-pyrazole-3-carboxamide] | 50 to 100% | 50 to 100% | A (80–100)
CCOC(=O)C(F)C(=O)Nc1c(F)ccc(NC(=O)c2cc(NC(=O)[C@H]3[C@H](c4ccc(F)c(C(F)(F)F)c4)C3(Cl)Cl)ccc2Cl)c1F (stereo partly drawn) [F1822, Ethyl 3-((3-(2-chloro-5-((1R,3R)-2,2-dichloro-3-(4-fluoro-3-(trifluoromethyl)phenyl)cyclopropane-1-carboxamido)benzamido)-2,6-difluorophenyl)amino)-2-fluoro-3-oxopropanoate] | 50 to 100% | 50 to 100% | A (80–100)
N#CCC(=O)N(CCF)c1c(F)ccc(NC(=O)c2cc(NC(=O)[C@H]3[C@H](c4ccc(F)c(C(F)(F)F)c4)C3(Cl)Cl)ccc2Cl)c1F [F1823, 2-Chloro-N-(3-(2-cyano-N-(2-fluoroethyl)acetamido)-2,4-difluorophenyl)-5-((1R,3R)-2,2-dichloro-3-(4-fluoro-3-(trifluoromethyl)phenyl)cyclopropane-1-carboxamido)benzamide] | 50 to 100% | 50 to 100% | A (80–100)
O=C(Nc1ccc(F)c(NCCF)c1F)c1cc(NC(=O)[C@H]2[C@H](c3ccc(F)c(C(F)(F)F)c3)C2(Cl)Cl)ccc1Cl [F1826, 2-Chloro-5-((1R,3R)-2,2-dichloro-3-(4-fluoro-3-(trifluoromethyl)phenyl)cyclopropane-1-carboxamido)-N-(2,4-difluoro-3-((2-fluoroethyl)amino)phenyl)benzamide] | 50 to 100% | 50 to 100% | A (80–100)
CCOC(C)C(=O)N(CC)c1c(F)ccc(NC(=O)c2cc(NC(=O)[C@H]3[C@H](c4ccc(F)c(C(F)(F)F)c4)C3(Cl)Cl)ccc2Cl)c1F (stereo partly drawn) [F1827, 2-Chloro-5-((1R,3R)-2,2-dichloro-3-(4-fluoro-3-(trifluoromethyl)phenyl)cyclopropane-1-carboxamido)-N-(3-(2-ethoxy-N-ethylpropanamido)-2,4-difluorophenyl)benzamide] | 50 to 100% | 50 to 100% | A (80–100)
O=C(CCC(F)(C(F)(F)F)C(F)(F)F)Nc1c(F)ccc(NC(=O)c2cc(NC(=O)[C@H]3[C@H](c4ccc(F)c(C(F)(F)F)c4)C3(Cl)Cl)ccc2Cl)c1F [F1829, 2-Chloro-5-((1R,3R)-2,2-dichloro-3-(4-fluoro-3-(trifluoromethyl)phenyl)cyclopropane-1-carboxamido)-N-(2,4-difluoro-3-(4,5,5,5-tetrafluoro-4-(trifluoromethyl)pentanamido)phenyl)benzamide] | 50 to 100% | 50 to 100% | A (80–100)
O=C(CCCC(F)(F)F)Nc1c(F)ccc(NC(=O)c2cc(NC(=O)[C@H]3[C@H](c4ccc(F)c(C(F)(F)F)c4)C3(Cl)Cl)ccc2Cl)c1F [F1830, 2-Chloro-5-((1R,3R)-2,2-dichloro-3-(4-fluoro-3-(trifluoromethyl)phenyl)cyclopropane-1-carboxamido)-N-(2,4-difluoro-3-(5,5,5-trifluoropentanamido)phenyl)benzamide] | 50 to 100% | 50 to 100% | A (80–100)
O=C(Nc1ccc(F)c(NC(=O)C(Br)CC(F)(F)F)c1F)c1cc(NC(=O)[C@H]2[C@H](c3ccc(F)c(C(F)(F)F)c3)C2(Cl)Cl)ccc1Cl (stereo partly drawn) [F1831, N-(3-(2-Bromo-4,4,4-trifluorobutanamido)-2,4-difluorophenyl)-2-chloro-5-((1R,3R)-2,2-dichloro-3-(4-fluoro-3-(trifluoromethyl)phenyl)cyclopropane-1-carboxamido)benzamide] | 50 to 100% | 50 to 100% | A (80–100)
O=C(CC1(C(F)(F)F)CC1)Nc1c(F)ccc(NC(=O)c2cc(NC(=O)[C@H]3[C@H](c4ccc(F)c(C(F)(F)F)c4)C3(Cl)Cl)ccc2Cl)c1F [F1836, 2-Chloro-5-((1R,3R)-2,2-dichloro-3-(4-fluoro-3-(trifluoromethyl)phenyl)cyclopropane-1-carboxamido)-N-(2,4-difluoro-3-(2-(1-(trifluoromethyl)cyclopropyl)acetamido)phenyl)benzamide] | 50 to 100% | 50 to 100% | A (80–100)
CCCN(C(=O)CC#N)c1c(F)ccc(NC(=O)c2cc(NC(=O)[C@H]3[C@H](c4ccc(F)c(C(F)(F)F)c4)C3(Cl)Cl)ccc2Cl)c1F [F1841, 2-Chloro-N-(3-(2-cyano-N-propylacetamido)-2,4-difluorophenyl)-5-((1R,3R)-2,2-dichloro-3-(4-fluoro-3-(trifluoromethyl)phenyl)cyclopropane-1-carboxamido)benzamide] | 50 to 100% | 50 to 100% | A (80–100)
CCCN(C(=O)C(C)OCC)c1c(F)ccc(NC(=O)c2cc(NC(=O)[C@H]3[C@H](c4ccc(F)c(C(F)(F)F)c4)C3(Cl)Cl)ccc2Cl)c1F (stereo partly drawn) [F1842, 2-Chloro-5-((1R,3R)-2,2-dichloro-3-(4-fluoro-3-(trifluoromethyl)phenyl)cyclopropane-1-carboxamido)-N-(3-(2-ethoxy-N-propylpropanamido)-2,4-difluorophenyl)benzamide] | 50 to 100% | 50 to 100% | A (80–100)
CC(F)(F)CCC(=O)Nc1c(F)ccc(NC(=O)c2cc(NC(=O)[C@H]3[C@H](c4ccc(F)c(C(F)(F)F)c4)C3(Cl)Cl)ccc2Cl)c1F [F1843, 2-Chloro-5-((1R,3R)-2,2-dichloro-3-(4-fluoro-3-(trifluoromethyl)phenyl)cyclopropane-1-carboxamido)-N-(3-(4,4-difluoropentanamido)-2,4-difluorophenyl)benzamide] | 50 to 100% | 50 to 100% | A (80–100)
O=C(CCC(F)(F)C(F)(F)F)Nc1c(F)ccc(NC(=O)c2cc(NC(=O)[C@H]3[C@H](c4ccc(F)c(C(F)(F)F)c4)C3(Cl)Cl)ccc2Cl)c1F [F1844, 2-Chloro-5-((1R,3R)-2,2-dichloro-3-(4-fluoro-3-(trifluoromethyl)phenyl)cyclopropane-1-carboxamido)-N-(2,4-difluoro-3-(4,4,5,5,5-pentafluoropentanamido)phenyl)benzamide] | 50 to 100% | 50 to 100% | A (80–100)
O=C(CCC(F)(F)F)Nc1c(F)ccc(NC(=O)c2cc(NC(=O)[C@H]3[C@H](c4ccc(Cl)c(Cl)c4)C3(Cl)Cl)ccc2Cl)c1F [F1847, 2-Chloro-5-((1R,3R)-2,2-dichloro-3-(3,4-dichlorophenyl)cyclopropane-1-carboxamido)-N-(2,4-difluoro-3-(4,4,4-trifluorobutanamido)phenyl)benzamide] | 50 to 100% | 50 to 100% | A (80–100)
O=C(CCC(F)(F)F)Nc1c(F)ccc(NC(=O)c2cc(NC(=O)[C@H]3[C@H](c4ccc(F)c(Cl)c4)C3(Cl)Cl)ccc2Cl)c1F [F1848, 2-Chloro-5-((1R,3R)-2,2-dichloro-3-(3-chloro-4-fluorophenyl)cyclopropane-1-carboxamido)-N-(2,4-difluoro-3-(4,4,4-trifluorobutanamido)phenyl)benzamide] | 50 to 100% | 50 to 100% | A (80–100)
